Experimental data as given in patent US20030053966A1, “Insoluble organic UV screening agents of aryl vinylene ketone type, and cosmetic use thereof” (priority 2001, published 2003).

Columns and labels:
[1] = UV absorption of the compound in solution; format: physicochemical
[2] = solution in DMSO/CH2Cl2, at λmax

Work on `CCNS(=O)(=O)CC12CCC(C(=Cc3ccc(C=C4C(=O)C5(CS(=O)(=O)NCC)CCC4C5(C)C)cc3)C1=O)C2(C)C` [Example 1, 1,4-phenylenebis(ethyl 3,3′-methylidenecamphor-10,10′-sulphonamide)] yielded a λmax ([1]; solution in DMSO/CH2Cl2) of 342 nm, an E1% [1, 2] of 654 and a εmax [1, 2] of 40350.

For `Cc1c(C)c(C=C2C(=O)C3(C)CCC2C3(C)C)c(C)c(C)c1C=C1C(=O)C2(C)CCC1C2(C)C` [Example 6, (2,3,5,6-tetramethyl)-1,4-phenylenebis-(3-methylidenecamphor)], the λmax ([1]; solution in CH2Cl3) was 286 nm, the E1% ([1]; solution, at λmax) was 270 and the εmax ([1]; solution, at λmax) was 12 200.

In the case of `CC12CCC(/C(=C\c3cccc(/C=C4/C(=O)C5(C)CCC4C5(C)C)c3)C1=O)C2(C)C` [Example 3, 1,3-phenylenebis(3-methylidenecamphor)], the melting point is reported as 152 °C.

Compound `CC12CCC(/C(=C\c3ccc(/C=C4/C(=O)C5(C)CCC4C5(C)C)cc3)C1=O)C2(C)C` [Example 5, 1,4-phenylenebis(3-methylidenecamphor)] has a melting point of 234 °C.

With `CCCCC(CC)CNS(=O)(=O)CC12CCC(C(=Cc3ccc(C=C4C(=O)C5(CS(=O)(=O)NCC(CC)CCCC)CCC4C5(C)C)cc3)C1=O)C2(C)C` (stereo not drawn) [Example 2, 1,4-phenylenebis(2-ethylhexyl 3,3′-methylidenecamphor-10,10′-sulphonamide)] the λmax ([1]; solution in CH2Cl2) was 342 nm, the E1% ([1]; solution in CH2Cl2, at λmax) was 522 and the εmax ([1]; solution in CH2Cl2, at λmax) was 41 000.

In the case of `C[Si](C)(C)CCCOc1ccc(/C=C2\CC/C(=C\c3ccc(OCCC[Si](C)(C)C)cc3)C2=O)cc1` [Example 8, 2,5-bis[4-(3-trimethylsilanylpropyloxy)-benzylidene]cyclopentanone], the λmax ([1]; solution in CHCl3) is reported as 391 nm, the E1% ([1]; solution in CHCl3, at λmax) is reported as 940 and the εmax ([1]; solution in CHCl3, at λmax) is reported as 49 100. For the same compound, the melting point was 205 to 207 °C.
